Test results reported in the NIST ThermoML archive (doi:10.1021/je900210h).
Where “and” joins values, the source holds several entries; their conditions need not be identical. Equal entries are not always repeated.

Settings: Fluid (supercritical or subcritical phases), Coaxial cylinder method

FCC(F)(F)F [1,1,1,2-tetrafluoroethane]
Settings | thermal conductivity
375.76 K, 4223 kPa | 0.0752 W/m/K
375.77 K, 4161 kPa | 0.0731 W/m/K
375.79 K, 4241 kPa | 0.0673 W/m/K
375.8 K, 3504 kPa | 0.029 W/m/K
375.8 K, 4150 kPa | 0.0656 W/m/K
375.81 K, 3534 kPa | 0.0279 W/m/K
375.82 K, 4254 kPa | 0.0627 W/m/K
375.83 K, 4141 kPa | 0.06 W/m/K
375.84 K, 4279 kPa | 0.0589 W/m/K
375.85 K, 4296 kPa | 0.0573 W/m/K
375.86 K, 4316 kPa | 0.0558 W/m/K
375.86 K, 4334 kPa | 0.0551 W/m/K
375.87 K, 3165 kPa | 0.0261 W/m/K
375.87 K, 3264 kPa | 0.0264 W/m/K
375.87 K, 4132 kPa | 0.0548 W/m/K
375.87 K, 4349 kPa | 0.0546 W/m/K
375.87 K, 4363 kPa | 0.0539 W/m/K
375.88 K, 4387 kPa | 0.0535 W/m/K
375.88 K, 4432 kPa | 0.0526 W/m/K
375.88 K, 4461 kPa | 0.0526 W/m/K and 0.0524 W/m/K
375.89 K, 4451 kPa | 0.0521 W/m/K
375.89 K, 4630 kPa | 0.052 W/m/K
375.9 K, 2970 kPa | 0.0251 W/m/K
375.92 K, 4120 kPa | 0.0485 W/m/K
375.93 K, 2700 kPa | 0.0265 W/m/K
375.94 K, 2662 kPa | 0.024 W/m/K
375.95 K, 2429 kPa | 0.0235 W/m/K
375.95 K, 3993 kPa | 0.0374 W/m/K
375.99 K, 3936 kPa | 0.0349 W/m/K
375.99 K, 4072 kPa | 0.0417 W/m/K
376.01 K, 3908 kPa | 0.034 W/m/K
376.02 K, 4205 kPa | 0.0817 W/m/K
376.02 K, 4207 kPa | 0.0822 W/m/K
376.02 K, 4209 kPa | 0.0826 W/m/K
376.02 K, 4213 kPa | 0.0826 W/m/K
376.02 K, 4217 kPa | 0.0821 W/m/K
376.03 K, 4203 kPa | 0.0807 W/m/K
376.03 K, 4222 kPa | 0.0806 W/m/K
376.03 K, 4225 kPa | 0.0797 W/m/K
376.04 K, 1048 kPa | 0.0214 W/m/K
376.04 K, 4039 kPa | 0.0379 W/m/K
376.04 K, 4200 kPa | 0.0784 W/m/K
376.04 K, 4230 kPa | 0.0774 W/m/K
376.04 K, 4233 kPa | 0.0766 W/m/K
376.05 K, 773 kPa | 0.0212 W/m/K
376.05 K, 4198 kPa | 0.0754 W/m/K
376.06 K, 524 kPa | 0.0208 W/m/K
376.06 K, 4011 kPa | 0.0362 W/m/K
376.06 K, 4242 kPa | 0.0737 W/m/K
376.07 K, 200 kPa | 0.0205 W/m/K
376.07 K, 4190 kPa | 0.0693 W/m/K
376.07 K, 4250 kPa | 0.0708 W/m/K
376.08 K, 3975 kPa | 0.0352 W/m/K
376.08 K, 4260 kPa | 0.0686 W/m/K
376.09 K, 4270 kPa | 0.0669 W/m/K
376.09 K, 4280 kPa | 0.0656 W/m/K
376.1 K, 3941 kPa | 0.0342 W/m/K
376.1 K, 4180 kPa | 0.0622 W/m/K
376.1 K, 4300 kPa | 0.0638 W/m/K
376.11 K, 3913 kPa | 0.0333 W/m/K
376.11 K, 4320 kPa | 0.0624 W/m/K
376.14 K, 5520 kPa | 0.054 W/m/K
376.14 K, 5651 kPa | 0.0543 W/m/K
376.14 K, 5740 kPa | 0.0545 W/m/K
376.15 K, 4789 kPa | 0.0527 W/m/K
376.15 K, 5037 kPa | 0.0529 W/m/K
376.15 K, 5092 kPa | 0.0531 W/m/K
376.15 K, 5216 kPa | 0.0534 W/m/K
376.15 K, 5296 kPa | 0.0536 W/m/K
376.16 K, 4754 kPa | 0.0523 W/m/K
376.19 K, 4160 kPa | 0.0503 W/m/K
376.21 K, 3800 kPa | 0.0312 W/m/K
376.21 K, 4150 kPa | 0.048 W/m/K
376.23 K, 2350 kPa | 0.0256 W/m/K
376.23 K, 3734 kPa | 0.0301 W/m/K
376.26 K, 4264 kPa | 0.081 W/m/K
376.26 K, 4360 kPa | 0.0608 W/m/K
376.26 K, 4390 kPa | 0.06 W/m/K
376.27 K, 4230 kPa | 0.0811 W/m/K
376.28 K, 4218 kPa | 0.0789 W/m/K
376.28 K, 4267 kPa | 0.0803 W/m/K
376.29 K, 4214 kPa | 0.078 W/m/K
376.29 K, 4279 kPa | 0.0786 W/m/K
376.31 K, 4210 kPa | 0.077 W/m/K
376.33 K, 3030 kPa | 0.0242 W/m/K
376.34 K, 4199 kPa | 0.074 W/m/K
376.34 K, 4305 kPa | 0.0746 W/m/K
376.38 K, 2200 kPa | 0.0252 W/m/K
376.38 K, 4192 kPa | 0.0712 W/m/K
376.4 K, 3872 kPa | 0.0323 W/m/K
376.41 K, 3872 kPa | 0.0317 W/m/K
